Reference: US20240425518A1, “N-MACROCYCLIC AMIDE COMPOUNDS, PREPARATION METHODS THEREOF AND APPLICATIONS THEREOF AS MEDICAMENTS” (Chengdu FANXI Biopharma Co., Ltd., priority 2023, published 2024)

Legend:
KDR (h) = biological target: T1, KDR (h) (Homo sapiens, UniProt P35968); assay: Radioisotope labeling kinase assay (Eurofins), KDR; type: biochemical
T1 construct: purchased Eurofins
Description: (§1) An activity to a human recombinant protein kinase of a series of compounds was determined by a radioisotope labeling method, which was provided by Eurofins Company. A compound to be detected was mixed with a corresponding protein kinase buffer (20 mM propyl sulfonate (MOPS, […].), 1 mM EDTA, 0.10 β-mercaptoethanol, 0.010 Brij-35, […], and 1 mg/mL BSA), the mixture was added into a reaction system (100 μM reaction substrate […], 8 mM MOPS with a pH value of 7.0, 10 mM MgAcetate, 0.2 mM EDTA, and a certain concentration of γ-^33P-ATP). After adding an MgATP composite solution, the reaction was started at room temperature for 40 minutes, and the reaction was terminated by adding 5 μl of […] solution. Then, 10 μl of reaction solution was dropwise added onto a filter and washed with 75 mM phosphoric acid solution for three times, 5 minutes each time, then washed with methanol once again, and dried and subjected to scintillation counting.

Ab1 (h) = biological target: T2, Ab1 (h) (Homo sapiens, UniProt P00519); assay: Radioisotope labeling kinase assay (Eurofins), Ab1; type: biochemical; conditions: for activity at 1 µM: 1 μM compound, read-out: Inhibitory activity per unit concentration/Activity % Ab1 (h)
T2 construct: purchased Eurofins
T2 sequence (P00519 whole entry): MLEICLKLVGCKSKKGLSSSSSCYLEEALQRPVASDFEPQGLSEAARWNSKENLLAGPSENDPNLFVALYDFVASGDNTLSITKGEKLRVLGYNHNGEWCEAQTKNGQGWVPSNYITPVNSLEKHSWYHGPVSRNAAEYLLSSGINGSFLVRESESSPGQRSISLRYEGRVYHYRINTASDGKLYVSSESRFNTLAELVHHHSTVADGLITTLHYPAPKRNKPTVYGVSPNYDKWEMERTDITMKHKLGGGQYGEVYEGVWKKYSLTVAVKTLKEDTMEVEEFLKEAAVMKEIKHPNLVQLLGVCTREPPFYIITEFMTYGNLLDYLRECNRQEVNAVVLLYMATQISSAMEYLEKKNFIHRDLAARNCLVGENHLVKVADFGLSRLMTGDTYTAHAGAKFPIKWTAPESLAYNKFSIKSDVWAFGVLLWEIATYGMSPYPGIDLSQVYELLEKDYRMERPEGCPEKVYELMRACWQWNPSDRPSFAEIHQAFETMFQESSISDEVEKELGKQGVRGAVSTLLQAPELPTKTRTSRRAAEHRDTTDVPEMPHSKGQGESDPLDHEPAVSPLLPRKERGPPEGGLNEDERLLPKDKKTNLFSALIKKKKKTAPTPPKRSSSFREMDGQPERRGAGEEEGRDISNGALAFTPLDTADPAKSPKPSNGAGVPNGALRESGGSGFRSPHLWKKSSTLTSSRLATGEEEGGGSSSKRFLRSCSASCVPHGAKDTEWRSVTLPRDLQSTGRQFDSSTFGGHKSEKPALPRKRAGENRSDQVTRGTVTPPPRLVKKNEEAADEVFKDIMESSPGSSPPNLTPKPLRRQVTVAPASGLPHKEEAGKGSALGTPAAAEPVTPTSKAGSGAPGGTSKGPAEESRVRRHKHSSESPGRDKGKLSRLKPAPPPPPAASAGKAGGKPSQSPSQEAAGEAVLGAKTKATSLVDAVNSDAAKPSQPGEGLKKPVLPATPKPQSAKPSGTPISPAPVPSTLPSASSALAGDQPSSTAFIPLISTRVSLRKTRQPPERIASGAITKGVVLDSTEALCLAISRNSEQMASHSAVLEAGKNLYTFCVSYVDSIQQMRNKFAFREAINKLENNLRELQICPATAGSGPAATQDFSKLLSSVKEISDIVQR
Description: as §1

EGFR (T790M, L858R) (h) = biological target: T3, EGFR (T790M, L858R) (h) (Homo sapiens, UniProt P00533, L858R/T790M); assay: Radioisotope labeling kinase assay (Eurofins), EGFR (T790M, L858R); type: biochemical
T3 construct: purchased Eurofins
T3 sequence (P00533 25-1210 T790M/L858R): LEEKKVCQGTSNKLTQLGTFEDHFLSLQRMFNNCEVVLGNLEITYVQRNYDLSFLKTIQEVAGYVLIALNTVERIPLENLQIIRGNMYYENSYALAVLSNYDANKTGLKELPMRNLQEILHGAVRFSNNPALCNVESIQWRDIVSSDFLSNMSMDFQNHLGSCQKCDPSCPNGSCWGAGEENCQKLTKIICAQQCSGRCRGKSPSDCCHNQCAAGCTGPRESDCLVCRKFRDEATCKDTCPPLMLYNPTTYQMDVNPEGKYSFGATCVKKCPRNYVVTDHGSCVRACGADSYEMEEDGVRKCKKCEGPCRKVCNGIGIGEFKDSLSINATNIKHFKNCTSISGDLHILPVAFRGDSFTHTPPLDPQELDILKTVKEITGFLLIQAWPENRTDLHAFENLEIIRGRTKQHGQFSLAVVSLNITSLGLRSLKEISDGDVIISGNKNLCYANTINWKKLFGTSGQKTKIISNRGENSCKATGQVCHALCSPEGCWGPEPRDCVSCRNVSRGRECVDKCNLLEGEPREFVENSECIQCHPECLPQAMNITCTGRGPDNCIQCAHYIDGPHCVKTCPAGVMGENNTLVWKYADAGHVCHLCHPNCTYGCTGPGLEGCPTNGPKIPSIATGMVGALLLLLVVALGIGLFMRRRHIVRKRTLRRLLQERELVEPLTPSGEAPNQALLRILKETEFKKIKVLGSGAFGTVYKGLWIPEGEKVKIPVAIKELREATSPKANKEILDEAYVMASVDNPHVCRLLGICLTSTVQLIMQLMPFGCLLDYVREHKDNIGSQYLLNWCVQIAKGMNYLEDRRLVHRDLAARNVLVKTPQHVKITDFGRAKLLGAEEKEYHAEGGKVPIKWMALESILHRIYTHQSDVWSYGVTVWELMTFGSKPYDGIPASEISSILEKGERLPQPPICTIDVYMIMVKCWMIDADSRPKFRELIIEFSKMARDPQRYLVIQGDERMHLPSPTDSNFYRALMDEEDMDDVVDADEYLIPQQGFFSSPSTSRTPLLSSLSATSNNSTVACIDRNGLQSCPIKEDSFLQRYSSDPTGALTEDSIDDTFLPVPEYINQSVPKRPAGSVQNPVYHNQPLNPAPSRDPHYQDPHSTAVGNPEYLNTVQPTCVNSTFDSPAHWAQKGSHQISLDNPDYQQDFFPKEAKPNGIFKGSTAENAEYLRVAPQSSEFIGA
Description: as §1

JAK3 (h) = biological target: T4, JAK3 (h) (Homo sapiens, UniProt P52333); assay: Radioisotope labeling kinase assay (Eurofins), JAK3; type: biochemical; conditions: for activity at 1 µM: 1 μM compound, read-out: Inhibitory activity per unit concentration/Activity % JAK3 (h)
T4 construct: purchased Eurofins
T4 sequence (P52333 1-1124): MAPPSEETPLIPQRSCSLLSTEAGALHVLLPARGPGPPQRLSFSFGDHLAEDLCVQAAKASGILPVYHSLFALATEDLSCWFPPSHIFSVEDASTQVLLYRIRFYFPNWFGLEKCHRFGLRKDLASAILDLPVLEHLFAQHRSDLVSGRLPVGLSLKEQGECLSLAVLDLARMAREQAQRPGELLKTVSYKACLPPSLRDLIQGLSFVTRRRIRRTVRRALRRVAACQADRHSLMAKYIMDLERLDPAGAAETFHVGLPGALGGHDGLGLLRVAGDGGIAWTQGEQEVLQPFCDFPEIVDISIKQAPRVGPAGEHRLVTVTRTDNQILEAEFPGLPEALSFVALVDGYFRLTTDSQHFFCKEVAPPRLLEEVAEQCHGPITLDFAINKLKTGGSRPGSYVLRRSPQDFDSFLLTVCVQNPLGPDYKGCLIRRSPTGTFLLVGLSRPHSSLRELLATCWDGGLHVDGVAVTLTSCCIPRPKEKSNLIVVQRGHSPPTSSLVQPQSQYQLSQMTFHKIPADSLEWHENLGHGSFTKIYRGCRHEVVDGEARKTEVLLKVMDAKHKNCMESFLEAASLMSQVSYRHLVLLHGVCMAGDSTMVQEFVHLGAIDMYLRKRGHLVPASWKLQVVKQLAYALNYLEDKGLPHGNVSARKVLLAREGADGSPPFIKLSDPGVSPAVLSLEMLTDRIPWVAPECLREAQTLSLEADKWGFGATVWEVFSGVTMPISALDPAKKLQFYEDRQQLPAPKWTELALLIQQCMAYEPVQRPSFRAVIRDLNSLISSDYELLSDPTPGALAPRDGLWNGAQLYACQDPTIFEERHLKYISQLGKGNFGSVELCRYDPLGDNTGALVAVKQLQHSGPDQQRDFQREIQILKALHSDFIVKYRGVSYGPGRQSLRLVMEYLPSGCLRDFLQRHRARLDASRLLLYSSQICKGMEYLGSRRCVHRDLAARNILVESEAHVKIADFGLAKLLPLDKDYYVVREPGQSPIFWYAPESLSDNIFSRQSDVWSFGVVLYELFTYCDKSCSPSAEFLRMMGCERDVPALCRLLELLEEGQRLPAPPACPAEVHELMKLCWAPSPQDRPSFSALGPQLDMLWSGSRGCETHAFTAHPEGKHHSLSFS
Description: as §1

Ret (h) = biological target: T5, Ret (h) (Homo sapiens, UniProt P07949); assay: Radioisotope labeling kinase assay (Eurofins), Ret; type: biochemical
T5 construct: purchased Eurofins
T5 sequence (P07949 29-1114): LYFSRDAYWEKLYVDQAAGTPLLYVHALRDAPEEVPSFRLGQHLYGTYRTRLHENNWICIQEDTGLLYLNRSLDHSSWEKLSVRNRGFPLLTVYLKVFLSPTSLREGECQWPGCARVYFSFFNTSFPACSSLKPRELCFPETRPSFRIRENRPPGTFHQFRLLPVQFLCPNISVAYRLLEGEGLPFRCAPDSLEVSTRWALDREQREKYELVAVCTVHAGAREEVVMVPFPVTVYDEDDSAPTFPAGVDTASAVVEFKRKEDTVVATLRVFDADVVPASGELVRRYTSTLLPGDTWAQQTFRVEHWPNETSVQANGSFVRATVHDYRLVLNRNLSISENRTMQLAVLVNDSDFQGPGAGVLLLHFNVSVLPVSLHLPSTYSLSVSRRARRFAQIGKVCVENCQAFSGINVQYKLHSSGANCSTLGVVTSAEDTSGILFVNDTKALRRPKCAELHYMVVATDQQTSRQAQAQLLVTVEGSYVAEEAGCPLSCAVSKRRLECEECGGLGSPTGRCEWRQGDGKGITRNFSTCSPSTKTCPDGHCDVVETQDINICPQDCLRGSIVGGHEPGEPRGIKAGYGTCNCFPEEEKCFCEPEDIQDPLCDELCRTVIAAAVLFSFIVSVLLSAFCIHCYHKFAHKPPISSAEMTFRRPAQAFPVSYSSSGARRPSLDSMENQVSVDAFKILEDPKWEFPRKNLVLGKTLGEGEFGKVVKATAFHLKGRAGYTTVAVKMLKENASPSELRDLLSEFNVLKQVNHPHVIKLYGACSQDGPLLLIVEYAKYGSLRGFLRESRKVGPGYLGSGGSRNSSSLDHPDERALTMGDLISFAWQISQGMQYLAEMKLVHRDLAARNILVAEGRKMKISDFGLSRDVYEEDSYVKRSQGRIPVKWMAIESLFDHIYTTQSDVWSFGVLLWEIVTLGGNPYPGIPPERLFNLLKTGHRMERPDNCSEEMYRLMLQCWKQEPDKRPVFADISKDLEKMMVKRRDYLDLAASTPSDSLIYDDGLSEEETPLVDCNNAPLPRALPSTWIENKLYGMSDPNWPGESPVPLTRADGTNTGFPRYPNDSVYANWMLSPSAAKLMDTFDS
Description: as §1

U266 Human myeloma cells = assay: MTT cell proliferation inhibition, U266; type: cell-based; conditions: U-266, U266, 72 hours
Description: (§2) Human cancer cells were purchased from ATCC. The cells were cultured in a culture medium according to the work instruction of ATCC. A dose-response curve was drawn by XL-fitting to determine an IC50 value of a compound. […] Cell proliferation inhibition could be detected by a MTT method (3-(4,5-Dimethylthiazol-2-yl)-2,5-diphenyltetrazolium bromide, and MTT; and 3-(4,5-dimethyl thiazole-2)-2,5-diphenyltertazolium bromide, and thiazolyl blue).
(§3) The cells were cultured in a culture dish first, and the cells in a logarithmic growth phase were inoculated into a 96-well plate (3,000 to 5,000 adherent cells/well, 10,000 to 30,000 suspended cells/well) according to a specific number, with 100 microliters per well, and then cultured in an incubator of 5% CO2 and 37° C. […] An absorbance of a general control group should be a normal value between 0.8 and 1.2. After obtaining absorbance data, a change curve of an inhibition rate was fitted by GraphPad Prism6.03 software and an IC50 value was calculated.
(§4) Calculation of drug inhibition rate: relative cell proliferation inhibition rate=[(control group A570−experimental group A570)/control group […], wherein A570 represented the absorbance at 570 nm.

[1] = test system: TT Human medullary thyroid cancer; assay: MTT cell proliferation inhibition, TT; type: cell-based; conditions: 72 hours
Description: as §2, §3, §4

[2] = test system: Karpas-299 Human anaplastic large cell lymphoma cells; assay: MTT cell proliferation inhibition, Karpas-299; type: cell-based; conditions: Karpas-299, 72 hours
Description: as §2, §3, §4

[3] = test system: HGC-27 Human gastric cancer cells; assay: MTT cell proliferation inhibition, HGC-27; type: cell-based; conditions: HGC-27, 72 hours
Description: as §2, §3, §4

[4] = test system: HT1080 Human fibrosarcoma cells; assay: MTT cell proliferation inhibition, HT1080; type: cell-based; conditions: HT-1080, HT1080, 72 hours
Description: as §2, §3, §4

[5] = test system: MV4-11 Human acute myelogenous leukemia; assay: MTT cell proliferation inhibition, MV4-11; type: cell-based; conditions: MV4-11, 72 hours
Description: as §2, §3, §4

[6] = test system: RPMI 8226 Human myeloma cells; assay: MTT cell proliferation inhibition, RPMI 8226; type: cell-based; conditions: RPMI 8226, 72 hours
Description: as §2, §3, §4

T1 sequence (P35968 20-1356): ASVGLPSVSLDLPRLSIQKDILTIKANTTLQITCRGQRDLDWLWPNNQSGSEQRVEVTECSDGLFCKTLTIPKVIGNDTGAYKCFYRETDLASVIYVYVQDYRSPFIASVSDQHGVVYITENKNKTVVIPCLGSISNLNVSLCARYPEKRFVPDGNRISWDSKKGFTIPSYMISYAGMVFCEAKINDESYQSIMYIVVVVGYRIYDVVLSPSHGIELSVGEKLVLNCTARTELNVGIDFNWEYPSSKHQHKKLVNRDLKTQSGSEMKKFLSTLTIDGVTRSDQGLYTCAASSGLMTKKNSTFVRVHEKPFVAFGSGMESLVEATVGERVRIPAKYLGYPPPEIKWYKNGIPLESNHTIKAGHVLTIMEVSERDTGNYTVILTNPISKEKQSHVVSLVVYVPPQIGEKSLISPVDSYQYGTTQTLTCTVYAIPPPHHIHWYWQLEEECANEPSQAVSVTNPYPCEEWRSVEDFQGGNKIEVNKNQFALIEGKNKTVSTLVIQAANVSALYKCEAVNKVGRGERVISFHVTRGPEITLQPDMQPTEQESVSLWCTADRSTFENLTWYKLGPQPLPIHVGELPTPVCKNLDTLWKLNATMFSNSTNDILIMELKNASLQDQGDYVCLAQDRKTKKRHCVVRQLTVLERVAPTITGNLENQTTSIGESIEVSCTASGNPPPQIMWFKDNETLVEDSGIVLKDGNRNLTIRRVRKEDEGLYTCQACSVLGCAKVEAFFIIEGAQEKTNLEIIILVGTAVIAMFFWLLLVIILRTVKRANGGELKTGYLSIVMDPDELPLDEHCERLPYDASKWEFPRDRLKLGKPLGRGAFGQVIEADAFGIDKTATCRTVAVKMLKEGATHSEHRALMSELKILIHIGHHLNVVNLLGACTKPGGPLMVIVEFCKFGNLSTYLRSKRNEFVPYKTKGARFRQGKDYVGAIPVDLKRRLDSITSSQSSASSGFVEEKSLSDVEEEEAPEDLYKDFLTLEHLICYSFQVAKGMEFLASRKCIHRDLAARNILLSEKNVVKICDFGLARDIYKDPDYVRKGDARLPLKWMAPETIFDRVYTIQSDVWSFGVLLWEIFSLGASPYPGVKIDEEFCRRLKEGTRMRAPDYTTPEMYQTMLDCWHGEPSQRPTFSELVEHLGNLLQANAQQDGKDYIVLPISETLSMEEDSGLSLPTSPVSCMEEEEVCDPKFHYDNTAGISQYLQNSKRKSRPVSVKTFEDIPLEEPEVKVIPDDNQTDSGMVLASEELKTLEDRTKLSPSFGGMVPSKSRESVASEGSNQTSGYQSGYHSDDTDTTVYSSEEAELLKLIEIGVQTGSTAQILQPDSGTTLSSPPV

| SMILES | IC50 (KDR (h)) [µM] | activity at 1 µM (Ab1 (h)) [%] | IC50 (EGFR (T790M, L858R) (h)) [µM] | activity at 1 µM (JAK3 (h)) [%] | IC50 (Ret (h)) [µM] | IC50 (U266 Human myeloma cells) [µM] | IC50 [1] [µM] | IC50 [2] [µM] | IC50 [3] [µM] | IC50 [4] [µM] | IC50 [5] [µM] | IC50 [6] [µM] | IC50 (JAK3 (h)) [µM] | IC50 (Ab1 (h)) [µM] |
| --- | --- | --- | --- | --- | --- | --- | --- | --- | --- | --- | --- | --- | --- | --- |
| C=CC(=O)Nc1cc2cc(c1)Nc1nccc(n1)-c1cccc(c1)COC/C=C/COC2 [XVI-6] | 0.061 | 17 | 0.064 | 16 | 0.202 | – | – | – | – | – | – | – | – | – |
| Nc1cc2cc(c1)Nc1nccc(n1)-c1cccc(c1)COC/C=C/COC2 [XIII-1] | 0.05 | 11 | 0.019 | 10 | 0.123 | – | – | – | – | – | – | – | – | – |
| CN(C)C/C=C/C(=O)Nc1cc2cc(c1)Nc1nccc(n1)-c1cccc(c1)COC/C=C/COC2 [XVI-8] | 0.097 | 4 | 0.017 | 19 | 0.079 | – | – | – | – | – | – | – | – | – |
| C#CC(=O)Nc1cc2cc(c1)Nc1nccc(n1)-c1cccc(c1)COC/C=C/COC2 [XVII-1] | – | 1 | 0.039 | 16 | 0.11 | – | – | – | – | – | – | – | – | – |
| C1=C/COCc2cccc(c2)-c2ccnc(n2)Nc2cc(cc(OC/C=C/CN3CCCC3)c2)COC/1 [XVI-12] | – | – | – | 26 | – | – | – | – | – | – | – | – | – | – |
| O=C(/C=C/CN1CCOCC1)Nc1cc2cc(c1)Nc1nccc(n1)-c1cccc(c1)COC/C=C/COC2 [XVI-3] | 0.021 | 8 | 0.021 | 8 | 0.145 | 2.7 | 1.47 | 1.18 | 0.495 | 1.58 | 0.087 | 2.04 | – | – |
| O=C(O)/C=C/C(=O)Nc1cc2cc(c1)Nc1nccc(n1)-c1cccc(c1)COC/C=C/COC2 [XVI-9] | – | – | – | 4 | – | – | – | – | – | – | – | – | 0.017 | – |
| O=C(/C=C/C(=O)N1CCOCC1)Nc1cc2cc(c1)Nc1nccc(n1)-c1cccc(c1)COC/C=C/COC2 [XVI-10] | 0.04 | 9 | – | 2 | – | – | – | – | – | – | – | – | 0.044 | 0.139 |
| C/C=C/C(=O)Nc1cc2cc(c1)Nc1nccc(n1)-c1cccc(c1)COC/C=C/CN(C)C2 [XVI-28] | 0.076 | 37 | 0.3 | 51 | 1.98 | – | – | – | – | – | – | – | – | – |
| CN(C)C/C=C/C(=O)Nc1cc2cc(c1)Nc1nccc(n1)-c1cccc(c1)COC/C=C/CN(C)C2 [XVI-26] | 0.329 | 32 | 0.164 | 74 | 0.594 | – | – | – | – | – | – | – | – | – |
| O=C(/C=C/C(=O)N1CCNCC1)Nc1cc2cc(c1)Nc1nccc(n1)-c1cccc(c1)COC/C=C/COC2 [XVI-11] | 0.189 | -1 | – | 6 | – | – | – | – | – | – | – | – | 0.151 | 0.034 |
| O=C(/C=C/CN1CCCC1)Nc1cc2cc(c1)Nc1nccc(n1)-c1cccc(c1)COC/C=C/COC2 [XVI-1] | 0.017 | -1 | 0.01 | 9 | 0.066 | 0.614 | 0.143 | 0.133 | 0.11 | 0.706 | 0.03 | 0.463 | – | – |
| C/C=C/C(=O)Nc1cc2cc(c1)Nc1nccc(n1)-c1cccc(c1)COC/C=C/COC2 [XVI-4] | – | 11 | 0.06 | 11 | 0.314 | – | – | – | – | – | – | – | – | – |
